Results as given in patent US8852876B2, “Label free biosensors and cells” (Corning Incorporated, priority 2008, dated 2014).
“Also recorded” adds a separate entry of the source. Where no end group is shown, it is not given here.

What follows are compounds tested on protease activated receptors PAR1 and PAR2 (assay: not given). Conditions: 40 unit/ml thrombin, 200 nM trypsin; αCD up to 8 mM.
Assay type: cell-based, human
Experimental: Human epidermoid carcinoma A431 cells (American Type Cell Culture) were grown in Dulbecco's modified Eagle's medium (DMEM) supplemented with 10% fetal bovine serum (FBS), 4.5 g/liter glucose, 2 mM glutamine, and antibiotics. ˜3-7.5×10^4 cells at passage 3 to 5 suspended in 200 μl the DMEM medium containing 10% FBS were placed in each well of a 96 well microplate, and were cultured at 37° C. under air/5% CO2 until ˜95% confluency was reached (˜2-4 days).
The compound or PAR agonist solutions were made in 1×HBSS in order to match the refractive index between the cell medium and compound solution, thus minimizing the unwanted effect of bulk index change due to the introduction of compound solution which can temporarily overwhelms any DMR signal as it occurs.

Row | Compound | Effect of pretreatment on DMR induced by thrombin or trypsin
1 | OC[C@H]1O[C@@H]2O[C@H]3[C@H](O)[C@@H](O)[C@@H](O[C@H]4[C@H](O)[C@@H](O)[C@@H](O[C@H]5[C@H](O)[C@@H](O)[C@@H](O[C@H]6[C@H](O)[C@@H](O)[C@@H](O[C@H]7[C@H](O)[C@@H](O)[C@@H](O[C@H]1[C@H](O)[C@H]2O)O[C@@H]7CO)O[C@@H]6CO)O[C@@H]5CO)O[C@@H]4CO)O[C@@H]3CO [αCD, α-cyclodextrin] | little effect on both agonist-induced DMR responses
2 | methyl-β-cyclodextrin [mβCD] | a dose-dependent alteration of the optical signatures induced by thrombin or trypsin

Same assay, conditions: high doses (>10 mM)

Row | Compound | Cell detachment
3 | OC[C@H]1O[C@@H]2O[C@H]3[C@H](O)[C@@H](O)[C@@H](O[C@H]4[C@H](O)[C@@H](O)[C@@H](O[C@H]5[C@H](O)[C@@H](O)[C@@H](O[C@H]6[C@H](O)[C@@H](O)[C@@H](O[C@H]7[C@H](O)[C@@H](O)[C@@H](O[C@H]1[C@H](O)[C@H]2O)O[C@@H]7CO)O[C@@H]6CO)O[C@@H]5CO)O[C@@H]4CO)O[C@@H]3CO [αCD, α-cyclodextrin] | resulted in significant amounts of cells detached from the surface of the biosensors

Each compound was assayed on EGF-induced response of quiescent A431 cells (assay: Effect of compound pretreatment on EGF-induced DMR response). Conditions: not given.
Assay type: cell-based, human
Experimental: Both A431 and CHO-K1 cells were grown in Dulbecco's modified Eagle's medium (DMEM) supplemented with 10% fetal calf serum, 100 μg/ml penicillin, and 100 μg/ml streptomycin. For cell culture, certain numbers of cells (2×10^5 to 1×10^6), either A431 or CHO-K1, were suspended in […] medium were placed in each well of a 96 well Corning Epic Biosensor microplate, and were cultured at 37° C. in air/5% CO2 for certain time until the cell density reached ˜90% and above (unless specified). The resulted cells were termed as “profilerating” cells. The “quiescent” cells were obtained by culturing the profilerating cells of desired confluencies with a medium containing no or little (˜0.1% fetal bovine serum (FBS)) for at least 16 hours.
During the assays, the cells in 100 μl medium were subject to two 25 μl HBSS buffer containing 20 mM HEPES, pH 7.4, each separated by at least 15 minutes before 50 μl stimulus-containing solution was applied. During all these steps, a parallel angular interrogation system was used to monitor the real time kinetics of cellular responses. For compound effect studies, a modified protocol was used which starts with 50 μl medium, and subject to sequential treatment: 25 μl HBSS buffer twice (each separated by at least 15 minutes), 50 μl compound solution and finally 50 μl stimulus-containing solution.

Row | Compound | Effect of pretreatment on 32 nM EGF-induced response
4 | C[S+]([O-])c1ccc(-c2nc(-c3ccncc3)c(-c3ccc(F)cc3)[nH]2)cc1 (centres unmarked) [SB203580] | only led to a partial attenuation
5 | N#CC(=C(/N)Sc1ccccc1N)/C(C#N)=C(\N)Sc1ccccc1N [U0126] | significantly compressed the amplitudes of both the P-DMR and N-DMR signals with a delayed time τ

Same assay, conditions: quiescent A431 cells; 32 nM EGF

Row | Compound | Effect of pretreatment on 32 nM EGF-induced response
6 | COC(=O)[C@@]1(OC)C[C@H]2O[C@]1(C)n1c3ccccc3c3c4c(c5c6ccccc6n2c5c31)C(=O)N(C)C4 [KT5823] | little effect on the response
7 | CCCCCCOC(=O)[C@]1(O)C[C@@H]2O[C@@]1(C)n1c3ccccc3c3c4c(c5c6ccccc6n2c5c31)C(=O)NC4 [KT 5720] | little effect on the response
8 | CCCCOc1cc(CC2CNC(=O)N2)ccc1OC (centres unmarked) [Ro 20-1724] | None of these inhibitors had an obvious effect on the responses
9 | Oc1ccc(-c2nc(-c3ccc(F)cc3)c(-c3ccncc3)[nH]2)cc1 [SB20219] | only led to a partial attenuation
10 | CN(C(=O)CCCOc1ccc2[nH]c(=O)ccc2c1)C1CCCCC1 [cilostamide] | None of these inhibitors had an obvious effect on the responses
11 | Cc1[nH]c(=O)c(C#N)cc1-c1ccncc1 [milrinone] | None of these inhibitors had an obvious effect on the responses
12 | R(−)-rolipram | None of these inhibitors had an obvious effect on the responses

Same assay, conditions: starved A431 cells; 8 nM EGF; 30-minute pretreatment; GH 0.5 ng/ml, PD98059 0.1 mM, PP1 1 μM, wortmannin 0.1 μM, DIP 50 μM

Row | Compound | Effect of pre-treatment on EGF-induced P-DMR and N-DMR signals
13 | COc1cccc(-c2cc(=O)c3ccccc3o2)c1N [PD98059] | significantly reduced both the binding and DMR signals
14 | growth hormone | significantly reduced both the binding and DMR signals

What follows are compounds tested on protease activated receptors PAR1 and PAR2 (assay: Fluo-3 Ca2+ mobilization assay with PAR agonists). Conditions: cholesterol depletion; αCD up to 8 mM.
Assay type: cell-based, human
Experimental: A431 at passage 3 to 5 were grown in Costar™ 96 well clear cell culture microplates until ˜95% confluency, washed twice and starved overnight with the DMEM only, washed with 1×HBSS (1× regular Hank's balanced salt solution, 20 mM HEPES buffer, pH 7.0) in the presence of 2.5 mM probenicid, and labeled in the same buffer containing 4 μM Fluo-3 for 1 hour at room temperature. The cells were then washed twice with buffer, maintained with 100 μl 1×HBSS containing 2.5 mM probenicid. The assay was initiated by transferring 50 μl PAR agonist solution to the cell plate, and calcium signal was recorded over 6 minutes with a 6 sec interval using HTS7000 BioAssay Reader (PerkinElmer Life Science, Boston, Mass.). The assays were carried out at room temperature in order to allow direct comparison with optical sensing data.

Row | Compound | Effect of pretreatment on [Ca2+]i elevation mediated by trypsin or thrombin
15 | OC[C@H]1O[C@@H]2O[C@H]3[C@H](O)[C@@H](O)[C@@H](O[C@H]4[C@H](O)[C@@H](O)[C@@H](O[C@H]5[C@H](O)[C@@H](O)[C@@H](O[C@H]6[C@H](O)[C@@H](O)[C@@H](O[C@H]7[C@H](O)[C@@H](O)[C@@H](O[C@H]1[C@H](O)[C@H]2O)O[C@@H]7CO)O[C@@H]6CO)O[C@@H]5CO)O[C@@H]4CO)O[C@@H]3CO [αCD, α-cyclodextrin] | had no effect on both trypsin and thrombin-induced responses
16 | methyl-β-cyclodextrin [mβCD] | a dose-dependent suppression of [Ca^2+]i elevation mediated by either trypsin or thrombin

Each compound was assayed on endogenous GPCRs in A431 cells (assay: DMR optical biosensor profiling of GPCR agonists). Conditions: fully quiescent A431 cells.
Assay type: cell-based, human
Experimental: Human epidermoid carcinoma A431 cells (American Type Cell Culture) were grown in Dulbecco's modified Eagle's medium (DMEM) supplemented with 10% fetal bovine serum (FBS), 4.5 g/liter glucose, 2 mM glutamine, and antibiotics. ˜3-7.5×10^4 cells at passage 3 to 5 suspended in 200 μl the DMEM medium containing 10% FBS were placed in each well of a 96 well microplate. Similarly ˜1-2×10^4 cells in 50 μl the growth medium were placed in each well of a 384 well microplate. After cell seeding, the cells were cultured at 37° C. under air/5% CO2 until ˜95% confluency was reached (˜2-4 days).
A Corning® Epic™ angular interrogation system with transverse magnetic or p-polarized TM0 mode was used for all studies. Several extra actions were taken to minimize the unwanted effects. First, to minimize the bulk index changes when a compound solution is introduced, 1×HBSS buffer without any probenecid was used to dilute all the compounds, whereas the DMEM buffer only was used to starve the cells. Secondly, to facilitate the cell responses as well as to rapidly reach a steady state when the sensor plates having cells were placed in the system at room temperature, the cells were pre-starved with the DMEM buffer without any FBS for a prolonged period of time (typically 20±2 hours), and the quiescent cells were directly used for assays without any wash.
For kinetics measurements, the cultured cells (˜95% confluency) were starved for about 20 hours with DMEM alone at 37° C. under air/5% CO2. Afterwards, the sensor microplate containing cells was placed into the optical system, and the cell responses were recorded before and after addition of a solution at room temperature. […] All studies were carried out at room temperature with the lid of the microplate on except for a short period of time (˜seconds) when the solution was introduced, in order to minimize the effect of temperature fluctuation and evaporative cooling. The unit of the responses indicated herein was a change in pixel of the central position of the resonant band of each sensor as imaged by a CCD camera; 1 unit equals to ˜5.82×10^−4 refractive index changes, based on an experimental normalization protocol, which uses the concentration-dependent responses of both glycerol and dimethyl sulfoxide.
The panel of agonists were used individually to stimulate quiescent A431 cells. The dose-dependent and kinetic responses were recorded and analyzed. In a typical kinetic measurement, the angular shift of resonant lights of each sensor induced by an agonist is monitored in real time and plotted as a function of time. An increased signal (P-DMR) means an increase in the amount of bio-molecules within the sensing volume (˜120 nm); conversely, a decreased signal (N-DMR) means a decrease in the amount of bio-molecules within the sensing volume. The sensing volume, also known as penetration depth, is an intrinsic property of the coupled light within the waveguide film, which creates an evanescent wave extending into the cell layer and the medium.

Row | Compound | Dose-dependent switching of optical signature
17 | CC(CCCCC(=O)Nc1ccc(C(F)(F)F)cc1)NCCc1cnc[nH]1 (centres unmarked) [HTMT] | At low doses (<˜40 nM), HTMT dose-dependently resulted in a typical Gi-type optical signature; also recorded: became almost steady (i.e., no obvious DMR); also recorded: switching to a typical Gs-type optical signature
18 | oleoyl-L-α-lysophosphatidic acid [LPA] | typical Gi-type optical signature at low doses of LPA; also recorded: switched to Gq-type optical signature at high doses of LPA

Same assay, conditions: quiescent A431; first class = Gq-type, second = Gs-type, third = Gi-type, fourth = no significant DMR

Row | Compound | Class of optical signature (DMR) induced by agonist
19 | NC[C@@H]1O[C@H](C23CC4CC(CC(C4)C2)C3)Cc2c1ccc(O)c2O [A-77636] | did not exhibited any significant DMR signals
20 | CN1CCC(c2c[nH]c3ccc(O)cc23)CC1 [BRL 54443] | did not exhibited any significant DMR signals
21 | C[C@@H](NC(=O)[C@@H](N)Cc1ccc(O)cc1)C(=O)NCC(=O)N(C)[C@@H](Cc1ccccc1)C(=O)NCCO [DAMGO] | did not exhibited any significant DMR signals
22 | Oc1cc2c(cc1O)C(c1ccccc1)CNCC2 (centres unmarked) [SKF38392] | did not exhibited any significant DMR signals
23 | Brc1c(NC2=NCCN2)ccc2nccnc12 [UK14304] | did not exhibited any significant DMR signals
24 | CCCCC/C=C\C/C=C\C/C=C\C/C=C\CCCC(=O)NCCO [anandamide] | did not exhibited any significant DMR signals
25 | CNC[C@H](O)c1ccc(O)c(O)c1 [epinephrine] | second class of optical signatures
26 | CC(C)NCC(O)c1ccc(O)c(O)c1 (centres unmarked) [isoprenternol] | second class of optical signatures
27 | CC[C@H](C)[C@H](NC(=O)[C@@H]1CCCN1C(=O)[C@@H](NC(=O)[C@@H](N)Cc1ccccc1)C(C)C)C(=O)N[C@@H](Cc1ccccc1)C(=O)N[C@H](C(=O)N[C@@H](Cc1ccc(O)cc1)C(=O)NCC(=O)N[C@@H](CCC(=O)O)C(=O)N[C@@H](CC(C)C)C(=O)N[C@@H](CCC(N)=O)C(=O)N[C@@H](CCCNC(=N)N)C(=O)N[C@@H](CCSC)C(=O)N[C@@H](CCC(N)=O)C(=O)N[C@@H](CCC(=O)O)C(=O)N[C@@H](CCCCN)C(=O)N[C@@H](CCC(=O)O)C(=O)N[C@@H](CCCNC(=N)N)C(=O)N[C@@H](CC(N)=O)C(=O)N[C@@H](CCCCN)C(=O)NCC(=O)N[C@@H](CCC(N)=O)C(=O)O)[C@@H](C)O [motilin] | did not exhibited any significant DMR signals
28 | Cc1cc(C(C)(C)C)c(O)c(C)c1CC1=NCCN1 [oxymetazoline] | did not exhibited any significant DMR signals
29 | Angiotensin II (DRVYIHPF; Angiotensin-2; UniProt P01019 25-32, looked up) [agonist, AGTR1] | did not exhibited any significant DMR signals
30 | apelin 1-13 | did not exhibited any significant DMR signals
31 | apelin 1-17 | did not exhibited any significant DMR signals
32 | dynorphin A (YGGFLRRIRPKLKWDNQ; Dynorphin A(1-17); UniProt P01213 207-223, looked up) [agonist, OPRM1 and OPRK1] | did not exhibited any significant DMR signals
33 | endothelin-1 (CSCSSLMDKECVYFCHLDIIW; ends and bridges not checked; cysteine pairing not given here; UniProt P05305 53-73, looked up) [agonist, EDNRA and EDNRB] | did not exhibited any significant DMR signals
34 | glucagon | did not exhibited any significant DMR signals
35 | interferon-γ-inducible protein-10 [IP-10] | did not exhibited any significant DMR signals
36 | interleukin-8 | did not exhibited any significant DMR signals
37 | neurokinin A (HKTDSFVGLM; ends and bridges not checked; UniProt P20366 98-107, looked up) [agonist, TACR2] | did not exhibited any significant DMR signals
38 | neuromedin N (IPYIL; Neuromedin N; UniProt P30990 144-148, looked up) [agonist, NTSR1] | did not exhibited any significant DMR signals
39 | neuropeptide Y | did not exhibited any significant DMR signals
40 | oleoyl-L-α-lysophosphatidic acid [LPA] | third class of optical signatures
41 | substance P (RPKPQQFFGLM; ends and bridges not checked; UniProt P20366 58-68, looked up) [agonist, TACR1] | did not exhibited any significant DMR signals
